Data on 14 compounds can be found in US9856196B2, “Agent for reduction of sensory irritation” (Kao Corporation, priority 2012, dated 2018).

The target in one test is human TRPA1 (Homo sapiens, UniProt O75762). As to the kind of experiment: Calcium imaging of TRPA1 activation in human TRPA1 stably expressing HEK293 cells. The settings on record: for TRPA1 activation caused by antiseptics and antiseptic aids: phenoxyethanol 20 to 30 mM, IPBC 0.03 to 0.1 mM, triclosan 0.1 to 0.3 mM, benzyl alcohol 20 to 30 mM, FIG. 3.
human TRPA1, sequence (O75762 whole entry): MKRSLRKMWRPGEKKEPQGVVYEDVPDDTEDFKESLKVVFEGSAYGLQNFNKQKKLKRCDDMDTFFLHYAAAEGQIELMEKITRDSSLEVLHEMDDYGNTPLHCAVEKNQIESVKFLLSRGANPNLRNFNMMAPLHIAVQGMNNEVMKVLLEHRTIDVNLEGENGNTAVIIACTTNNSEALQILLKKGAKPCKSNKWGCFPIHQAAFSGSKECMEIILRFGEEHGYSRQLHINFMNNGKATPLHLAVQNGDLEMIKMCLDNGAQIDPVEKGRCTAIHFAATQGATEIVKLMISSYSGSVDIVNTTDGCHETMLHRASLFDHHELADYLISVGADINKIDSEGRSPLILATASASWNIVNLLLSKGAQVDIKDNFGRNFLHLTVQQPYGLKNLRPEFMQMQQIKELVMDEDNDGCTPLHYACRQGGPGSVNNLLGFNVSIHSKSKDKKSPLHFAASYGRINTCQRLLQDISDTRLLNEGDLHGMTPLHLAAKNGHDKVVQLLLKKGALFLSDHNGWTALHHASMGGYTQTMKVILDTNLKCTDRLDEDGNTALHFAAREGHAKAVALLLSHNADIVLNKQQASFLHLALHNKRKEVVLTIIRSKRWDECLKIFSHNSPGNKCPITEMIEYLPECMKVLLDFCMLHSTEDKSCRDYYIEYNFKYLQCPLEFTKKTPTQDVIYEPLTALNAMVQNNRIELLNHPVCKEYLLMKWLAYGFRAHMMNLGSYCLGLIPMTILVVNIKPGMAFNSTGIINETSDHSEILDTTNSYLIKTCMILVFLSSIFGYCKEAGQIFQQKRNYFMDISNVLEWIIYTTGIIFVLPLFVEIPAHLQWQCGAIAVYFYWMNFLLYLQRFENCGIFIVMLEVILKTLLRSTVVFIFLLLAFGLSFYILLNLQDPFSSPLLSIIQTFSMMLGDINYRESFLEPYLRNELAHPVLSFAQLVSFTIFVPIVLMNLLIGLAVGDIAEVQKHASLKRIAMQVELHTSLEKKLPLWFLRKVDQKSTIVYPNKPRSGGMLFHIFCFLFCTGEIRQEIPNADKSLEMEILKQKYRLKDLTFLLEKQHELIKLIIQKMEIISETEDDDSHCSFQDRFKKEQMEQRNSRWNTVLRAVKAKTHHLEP
The subject of the next test is human skin. As to the kind of experiment: Sensory irritation property to antiseptic on human skin (discomfort score, sensitive women). The settings on record: antiseptic solution (0.2% methylparaben + 0.35% phenoxyethanol) + 0.05% Compound 1 on face, versus antiseptic solution alone; maximum score, scale 0.0-3.0; FIG. 4. The test is classed as in vivo. The protocol:
(1) Selection of Test Subjects
To evaluate the skin sensory irritation, 22 women (age 20 to 59) having high sensitivity (1% lactic acid-sensitive, low current perception threshold and sensitive skin conscious with medical history of allergic disease) were selected as the subjects.
(2) Evaluation of Sensory Irritation Property to Antiseptic
After washing the face, the subjects entered a constant temperature-humidity room (room temperature 20° C., humidity about 50%) and were acclimated for 20 minutes, followed by applying 300 ill of distilled water heated to 37° C. in one side of the face from the cheek to the nose. 1, 2.5, 5 and 8 minutes after the application, the degree (intensity) of unpleasant sensation (pain) reported in accordance with the following unpleasant sensation reference values was notated.
0.0; None or pleasant sensation
0.5; Slight discomfort barely detectable
1.0; Mild discomfort, detectable sensation but tolerable
1.5; Mild to moderate discomfort
2.0; Moderate discomfort, unpleasant feeling but tolerable
2.5; Moderate to severe discomfort
3.0; Severe discomfort, intense unpleasant feeling
The distilled water was wiped off 8 minutes later, 300 μl of an antiseptic solution (0.2% methylparaben (MP)+0.35% phenoxyethanol (Phe) aqueous solution) was applied to the same part to notate the degrees of unpleasant sensation in the same manner. […]

Test [1] in a line: Inhibitory effect on irritating odor (ammonia odor, panel evaluation). The format is in vivo. Particulars: for ammonia odor (irritating odor) score, average: 7-stage scale 0 to 6. The protocol:
Ammonia was volatilized and saturated by putting a cotton ball impregnated with a 28% ammonia water (20 μl) in a 50 ml syringe for 12 hours or more. The intensity of ammonia odor (irritating odor) was evaluated using a 7-stage scale (0 to 6). Comparative evaluation was carried out without sniffing the test perfume.
(2) Evaluation scale 0; No irritating odor, 1; very faint, 2: faint, 3; easily noticeable, 4; strong, 5; very strong, 6; extremely strong

Setting [2] is: HEK293, read-out: Ratio for TRPA1 inhibition (%), 5.0 μM AITC, test material 100 μM.
[3] abbreviates: HEK293, read-out: Ratio for TRPA1 inhibition (%), 10 μM AITC, test material 100 μM.

pIC50: −log10 of the molar value. Read-outs that look alike come from different tables or passages of the source.

Excerpt for human TRPA1: (1) Preparation of Human TRPA1 Stably Expressing Cell Line
The human TRPA1 gene of which the full length is inserted into pENTR223.1 was purchased from Open Biosystems. The TRPA1 gene was sub-cloned into an expression vector pcDNA3.2-V5/DEST (Invitrogen) and transfected into HEK293 cells using Lipofectamine 2000 (Invitrogen).
(3) Evaluation of the Inhibitory Effect on TRPA1 Activation Caused by AITC

What is called pIC50 is −log10 of the IC50, conventionally taken in molar units. `C/C(=C\C(C)c1ccccc1)CO` (stereo not drawn) [Compound 10, (E)-2-methyl-4-phenyl-2-penten-1-ol]: the pIC50 on human TRPA1 was 4.49. For the same compound, the inhibition at 100 µM on human TRPA1 (setting [2]) was determined as 92.9%; on human TRPA1 (setting [3]), 31.8%.

As for `CC(CO)CCc1ccccc1` (stereo not drawn) [Compound 11, 2-methyl-4-phenyl-1-butanol], the inhibition at 100 µM on human TRPA1 (setting [2]) stood at 19.5%; at human TRPA1 (setting [3]), 3.9%.

As for `OCCCCc1ccccc1` [Comparative Compound 2, 4-phenyl-1-butanol, reference compound], the inhibition at 100 µM on human TRPA1 (setting [2]) came out at 0%; at human TRPA1 (setting [3]), 0.8%.

For the compound `CCC(CC(C)CO)c1ccccc1` (stereo not drawn) [Compound 6, 2-methyl-4-phenyl-1-hexanol], the inhibition at 100 µM at human TRPA1 (setting [2]) worked out at 18.7%; on human TRPA1 (setting [3]) it was 9.7%.

Regarding `OCc1ccccc1` [benzyl alcohol, reference compound], the “TRPA1 activation caused by antiseptics and antiseptic aids” value at human TRPA1 is reported as “activate TRPA1 in a dose dependent manner”.

As to `CCC(C=C(C)CO)c1ccccc1` (stereo not drawn) [Compound 5, 2-methyl-4-phenyl-2-hexen-1-ol], the figures for the inhibition at 100 µM at human TRPA1 (setting [2]) and on human TRPA1 (setting [3]) were 83.4% and 27.6%, respectively.

For the compound `CC(CCCO)c1ccccc1` (stereo not drawn) [Comparative Compound 1, 4-phenyl-1-pentanol, reference compound], the inhibition at 100 µM at human TRPA1 (setting [3]) turned out to be 0%.

Regarding `CC(CC(C)C(C)O)c1ccccc1` (stereo not drawn) [Compound 12, 3-methyl-5-phenyl-2-hexanol], the results for the inhibition at 100 µM on human TRPA1 (setting [2]) and on human TRPA1 (setting [3]) were 54.9% and 27.1%, respectively.

Take d-camphor [reference compound]: the “Ratio for TRPA1 inhibition (%)” value at human TRPA1 (5.0 μM AITC, test material 100 μM) stood at 1.8%; on human TRPA1 (5.0 μM AITC, test material 500 μM), 27.8%; at human TRPA1 (10 μM AITC, test material 100 μM), 0.0%; on human TRPA1 (10 μM AITC, test material 500 μM), 15.1%; on human TRPA1 (30 μM AITC, test material 0.01%), 6.9%; on human TRPA1 (30 μM AITC, test material 0.03%), 89.7%. Moreover, the “Ratio for TRPA1 inhibition (%)” value on human TRPA1 (stimulant Benzyl alcohol 20 mM, test material 0.5 mM) is listed as −0.89%; at human TRPA1 (stimulant IPBC 0.03 mM, test material 0.5 mM), 32.40%; on human TRPA1 (stimulant Phenoxyethanol 20 mM, test material 0.5 mM), 13.96%; on human TRPA1 (stimulant Triclosan 0.1 mM, test material 0.5 mM) it was 27.45%.

As to `Oc1cc(Cl)ccc1Oc1ccc(Cl)cc1Cl` [triclosan, reference compound], the “TRPA1 activation caused by antiseptics and antiseptic aids” value at human TRPA1 was “activate TRPA1 in a dose dependent manner”.

Take `CC(CO)C(C)Cc1ccccc1` (stereo not drawn) [Compound 9, 2,3-dimethyl-4-phenyl-1-butanol]: the inhibition at 100 µM on human TRPA1 (setting [2]) amounted to 89.5%; at human TRPA1 (setting [3]) it was 51.7%.

As for `CC/C(=C/C(CC)c1ccccc1)CO` (stereo not drawn) [Compound 8, (Z)-2-ethyl-4-phenyl-2-hexen-1-ol], at human TRPA1, the pIC50 was 5.70. Also, the inhibition at 100 µM at human TRPA1 (setting [2]) was found to be 102%; at human TRPA1 (setting [3]), 101%.

As for `CC/C(=C\C(CC)c1ccccc1)CO` (stereo not drawn) [Compound 7, (E)-2-ethyl-4-phenyl-2-hexen-1-ol], the pIC50 on human TRPA1 was 5.47. Further, the inhibition at 100 µM on human TRPA1 (setting [2]) was determined as 103%; on human TRPA1 (setting [3]), 102%.

Consider `CC(CO)CC(C)c1ccccc1` (stereo not drawn) [Compound 1, 2-methyl-4-phenyl-1-pentanol], for which the “discomfort (pain) score” value with human skin was “reduced”. Also, the “ammonia odor (irritating odor) score, average” value in test [1] (1 minute later) is given as 2; in test [1] (2 minutes later), 2; in test [1] (5 minutes later), 2; in test [1] (6 minutes later), 3; in test [1] (10 minutes later), 3; in test [1] (Immediately after inhalation of test perfume, five panelists) it was 1. The “time the ammonia odor reducing effect was maintained after the inhalation” value in test [1] (after 1 minute sniffing of test perfume) is 5 min.
